Data: patent publication US9433667B2, “Cancer vaccines and vaccination methods” (Cedars-Sinai Medical Center, priority 2006, dated 2016)

What was measured:
[1] = test system: T2 pulsed Her-2 native peptide; test: IFN-γ production of Her-2 APL-specific CTLs induced in vitro from patient-derived PBMCs; assay type: cell-based, human; details: among four CTLs, two HLA-A*0201 GBM patients, P<0.05 vs No. 52
Description: FIGS. 3A and 3B are bar graphs that show IFN-γ levels after in vitro induction of CTL in patient-derived PBMCs with native or superagonist Her-2 peptides in accordance with an embodiment of the present invention in two different patients.
(§1) The following protocol can be used to produce antigen specific CTL in vitro from patient derived PBMC. To generate dendritic cells, the plastic adherent cells from PBMCs are cultured in AIM-V medium supplemented with recombinant human GM-CSF and recombinant human IL-4 at 37° C. in a humidified CO2 (5%) incubator. Six days later, the immature dendritic cells in the cultures are stimulated with recombinant human TNF-α for maturation. Mature dendritic cells are then harvested on day 8, resuspended in PBS at 1×10^6 per mL with peptide (2 μg/mL), and incubated for 2 hours at 37° C. Autologous CD8+ T cells are enriched from PBMCs using magnetic microbeads (Miltenyi Biotech, Auburn, Calif.). CD8+ T cells (2×10^6 per well) are cocultured with 2×10^5 per well peptide-pulsed dendritic cells in 2 mL/well of AIM-V medium supplemented with 5% human AB serum and 10 units/mL rhIL-7 (Cell Sciences) in each well of 24-well tissue culture plates. About 20 U/ml of IL-2 is added 24 h later at regular intervals, 2 days after each restimulation. […] After 24 hours incubation, IFN-γ in the medium is measured by ELISA assay. […]

[2] = test system: T2 pulsed with gp100 native peptide; test: IFN-γ production of gp100 APL-specific CTLs induced in vitro from patient-derived PBMCs; assay type: cell-based, human; details: among six CTLs, two HLA-A*0201 GBM patients, P<0.05 vs gp100 (2M)
Description: FIGS. 2A and 2B are bar graphs that show IFN-γ levels after in vitro induction of CTL in patient-derived PBMCs with dendritic cells pulsed with gp100(2M) or superagonist gp100 peptides in accordance with an embodiment of the present invention in two separate patients.
as §1

[3] = test system: T cells specific for ML-M epitope 19-30; test: Epitope-specific T cell responses in mice after IV immunization, measured by cell proliferation in vitro; assay type: in vivo, C3H mice; details: for T cell response after immunization: IV immunization, lymph node T cells recalled with peptides, FIG. 1
Description: FIG. 1 is a graph depicting levels of epitope-specific T cell responses in mice following immunization IV with mouse lysozyme-M (ML-M), a mouse lysozyme peptide (p19-30), and a mouse lysozyme peptide modified with dibasic residues (18R31R), as measured by cell proliferation in vitro. T cells were isolated from lymph nodes of the animals (3 animals per group) and response to each immunogen was measured.
In studies using mouse lysozyme-M (ML-M) as a model self Ag, it was observed that mice of diverse MHC haplotypes were tolerant to native (unmutated) ML-M and peptide forms of certain T cell epitopes. It was hypothesized that tolerance to a given epitope was not an inherent structural characteristic, but was attributable in part to inefficient processing of the epitope, owing either to the absence of a proteolytic cleavage site adjacent to that determinant, or to the inaccessibility to the proteolytic enzyme(s) of an existing cleavage site within that region of the molecule. In either case, the provision of a new proteolytic cleavage site adjacent to a cryptic determinant may permit scission of the peptide at that site, making the previously cryptic epitope region available for binding to the appropriate MHC molecule, and lead to presentation to specific T cells of that determinant as a neodominant epitope on the APC surface. To test this proposition, a dibasic motif, consisting of two contiguous basic amino acid residues, e.g., arg-arg (RR) or arg-lys (RK), was used.
The targeted regions within ML-M included residues 19-31, which contain cryptic epitopes for mice of the H-2^k haplotype, shown in Table 7.

Molecule: H- F M A N V A I P H L -NH2 (H-FMANVAIPHL-NH2) [No. 19]
- IFN-γ level of CTL stimulated by the peptide [1]: highest IFN-γ level

Molecule: H- Y M D Q V P Y S V -NH2 (H-YMDQVPYSV-NH2) [No. 38]
- IFN-γ level of CTL stimulated by the peptide [2]: highest IFN-γ level

Molecule: RR-GYYGVSLADWVC-RR (RRGYYGVSLADWVCRR; RR flanking dibasic residues; Synthetically generated peptide) [RR-p18-31-RR]
- T cell response after immunization [3]: raised a potent T cell response
- in vitro restimulation of T cells primed by RR-p18-31-RR ([3]; recall antigen in vitro): could be restimulated

B1: mouse lysozyme-M (protein, UniProt P08905 19-148, looked up)
Lysozyme C-2: KVYERCEFARTLKRNGMAGYYGVSLADWVCLAQHESNYNTRATNYNRGDQSTDYGIFQINSRYWCNDGKTPRAVNACGINCSALLQDDITAAIQCAKRVVRDPQGIRAWVAWRAHCQNRDLSQYIRNCGV
notes: model self antigen, native (unmutated) mouse lysozyme-M
- T cell response after immunization [3]: failed to respond
